The target in one series is T1, Galanin receptor type 3 (Homo sapiens, UniProt O60755).
T1 sequence (O60755 whole entry): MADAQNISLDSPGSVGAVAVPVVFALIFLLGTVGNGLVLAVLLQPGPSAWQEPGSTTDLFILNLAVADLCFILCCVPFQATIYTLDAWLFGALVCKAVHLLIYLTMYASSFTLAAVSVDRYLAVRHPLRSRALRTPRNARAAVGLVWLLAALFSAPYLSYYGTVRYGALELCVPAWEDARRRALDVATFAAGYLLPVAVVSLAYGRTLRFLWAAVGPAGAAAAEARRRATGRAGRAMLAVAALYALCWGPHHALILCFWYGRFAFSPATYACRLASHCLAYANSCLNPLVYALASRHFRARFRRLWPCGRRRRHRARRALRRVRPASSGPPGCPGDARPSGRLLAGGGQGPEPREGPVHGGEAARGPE
Briefly: Displacement of [125I]galanin from human galanin Gal3 receptor. On the technique in general: Displacement assays read how much labelled ligand stays bound in the presence of the test substance.

A short description of series [1]: Aqueous solubility at pH 7.4. The class given is physicochemical.
The target of the next series is D(1B) dopamine receptor (Homo sapiens, UniProt P21918). Briefly: Binding affinity to human dopamine D5 receptor.
D(1B) dopamine receptor, sequence (P21918 whole entry): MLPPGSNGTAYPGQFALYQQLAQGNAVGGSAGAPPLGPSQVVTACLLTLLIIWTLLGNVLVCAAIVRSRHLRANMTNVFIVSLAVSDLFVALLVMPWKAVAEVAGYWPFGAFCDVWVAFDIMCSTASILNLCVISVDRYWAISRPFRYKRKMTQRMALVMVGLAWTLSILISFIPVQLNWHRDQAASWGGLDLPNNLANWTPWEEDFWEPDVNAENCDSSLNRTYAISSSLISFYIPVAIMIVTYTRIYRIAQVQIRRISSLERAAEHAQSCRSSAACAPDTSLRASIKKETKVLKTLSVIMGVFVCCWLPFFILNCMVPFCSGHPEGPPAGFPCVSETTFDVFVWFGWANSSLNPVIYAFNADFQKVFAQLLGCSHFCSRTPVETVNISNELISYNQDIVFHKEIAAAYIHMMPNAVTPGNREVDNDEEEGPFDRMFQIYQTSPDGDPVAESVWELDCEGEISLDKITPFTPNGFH
The target of series [2] is T2, Alpha-1A adrenergic receptor (Homo sapiens, UniProt P35348).
T2 sequence (P35348 whole entry): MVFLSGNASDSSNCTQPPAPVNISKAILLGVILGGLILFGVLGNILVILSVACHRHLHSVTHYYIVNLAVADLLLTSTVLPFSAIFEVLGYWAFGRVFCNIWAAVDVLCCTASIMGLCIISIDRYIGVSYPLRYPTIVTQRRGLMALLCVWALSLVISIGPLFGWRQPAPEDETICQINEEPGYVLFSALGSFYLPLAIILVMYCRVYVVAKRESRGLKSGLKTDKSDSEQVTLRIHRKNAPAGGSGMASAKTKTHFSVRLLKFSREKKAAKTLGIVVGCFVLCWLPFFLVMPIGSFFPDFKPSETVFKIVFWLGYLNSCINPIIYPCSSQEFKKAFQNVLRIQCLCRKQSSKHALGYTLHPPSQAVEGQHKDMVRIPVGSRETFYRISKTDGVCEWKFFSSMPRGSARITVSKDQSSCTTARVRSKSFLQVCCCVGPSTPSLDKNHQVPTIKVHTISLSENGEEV
Briefly: Binding affinity to human adrenergic alpha-1A receptor.

The values that follow come from ChEMBL document CHEMBL1146013, “Amino substituted analogs of 1-phenyl-3-phenylimino-2-indolones with potent galanin Gal3 receptor binding affinity and improved solubility” (Bioorg Med Chem Lett, 2006).

In brackets after ≈: the same amount, converted by molar mass.

One may read the Ki as the dissociation constant of the complex between target and ligand, obtained from inhibition or displacement. Broadly, the solubility is how much of the substance goes into solution per volume. Higher therefore signals much dissolved substance. As for `CCN(CC)CCCCOc1cccc(N2C(=O)/C(=N/c3cccc(C(F)(F)F)c3)c3ccccc32)c1`, the affinity at Galanin receptor type 3 corresponds to a Ki of 45 nM. The solubility in series [1] is 5 µg/mL (≈ 9.81 µM). Take `CCN(CC)CCOc1cccc(N2C(=O)/C(=N/c3cccc(C(F)(F)F)c3)c3ccccc32)c1`: the Ki on Galanin receptor type 3 came to 87 nM. In the case of `O=C1/C(=N/c2cccc(C(F)(F)F)c2)c2ccccc2N1c1cccc(OCCN2CCCC2)c1`, the Ki on Galanin receptor type 3 worked out at 5 nM; at D(1B) dopamine receptor it was 939 nM; in series [2], 78 nM. In addition, the solubility in series [1] was 48 µg/mL (≈ 100 µM). On Galanin receptor type 3, `O=C1/C(=N/c2cccc(C(F)(F)F)c2)c2ccccc2N1c1cccc(OCCN2CCCCC2)c1` came in with a Ki of 8 nM. In addition, the solubility in series [1] stood at 7 µg/mL (≈ 14.2 µM). Turning to `CCN(CC)C[C@H](O)COc1cccc(N2C(=O)/C(=N/c3cccc(C(F)(F)F)c3)c3ccccc32)c1`, on Galanin receptor type 3, the affinity corresponds to a Ki of 27 nM. This compound also yielded a solubility in series [1] of 606 µg/mL (≈ 1180 µM). In turn, `CN(C)CCOc1ccc(N2C(=O)/C(=N/c3cccc(C(F)(F)F)c3)c3ccccc32)cc1` returned a Ki at Galanin receptor type 3 of 89 nM.

As to `O=C1/C(=N/c2cccc(C(F)(F)F)c2)c2ccccc2N1c1ccccc1`, the Ki at Galanin receptor type 3 amounted to 17 nM. In series [1], the solubility is under 1 µg/mL. On Galanin receptor type 3, `O=C1/C(=N/c2cccc(C(F)(F)F)c2)c2ccccc2N1c1cccc(OCCCN2CCCC2)c1` showed a Ki of 49 nM. In the case of `CN(C)CCOc1cccc(N2C(=O)/C(=N/c3cccc(C(F)(F)F)c3)c3ccccc32)c1`, the Ki at Galanin receptor type 3 amounted to 26 nM. On to `CCN(CC)CCOc1ccc(N2C(=O)/C(=N/c3cccc(C(F)(F)F)c3)c3ccccc32)cc1`, for which, on Galanin receptor type 3, the affinity corresponds to a Ki of 78 nM.

`CCN(CC)C[C@@H](O)COc1cccc(N2C(=O)/C(=N/c3cccc(C(F)(F)F)c3)c3ccccc32)c1`: the affinity on Galanin receptor type 3 corresponds to a Ki of 290 nM.

`CCN(CC)CCOc1ccccc1N1C(=O)/C(=N/c2cccc(C(F)(F)F)c2)c2ccccc21` gave a Ki on Galanin receptor type 3 of 1000 nM. In turn, `CCN(CC)CCCOc1ccc(N2C(=O)/C(=N/c3cccc(C(F)(F)F)c3)c3ccccc32)cc1` returned a Ki on Galanin receptor type 3 of 34 nM. The same compound had a solubility in series [1] of 35 µg/mL (≈ 70.6 µM). As to `CCN(CC)CCCCOc1ccc(N2C(=O)/C(=N/c3cccc(C(F)(F)F)c3)c3ccccc32)cc1`, the Ki at Galanin receptor type 3 came to 70 nM. Same read-out and setting: in the case of `CN(C)CCCOc1cccc(N2C(=O)/C(=N/c3cccc(C(F)(F)F)c3)c3ccccc32)c1` it was 29 nM.

For `CCN(CC)CCCOc1cccc(N2C(=O)/C(=N/c3cccc(C(F)(F)F)c3)c3ccccc32)c1`, the Ki on Galanin receptor type 3 amounted to 21 nM; at D(1B) dopamine receptor, 411 nM. In series [1], this compound had a solubility of 44 µg/mL (≈ 88.8 µM).

In turn, `CCN(CC)COc1cccc(N2C(=O)/C(=N/c3cccc(C(F)(F)F)c3)c3ccccc32)c1` registered a Ki on Galanin receptor type 3 of 38 nM. This compound came in with a solubility in series [1] of 48 µg/mL (≈ 103 µM). `O=C1/C(=N/c2cccc(C(F)(F)F)c2)c2ccccc2N1c1ccccc1OCCN1CCCC1` showed a Ki at Galanin receptor type 3 of 790 nM. The same measure, in the same setting: in the case of `CCN(CC)CC(O)COc1cccc(N2C(=O)/C(=N/c3cccc(C(F)(F)F)c3)c3ccccc32)c1` (racemic) it was 15 nM.
